Experimental data from patent publication US6867235B2, “Helianthrone derivatives as anti-cancer agents” (Yeda Research and Development Co. Ltd., priority 2000, dated 2005).

Legend:
[1] = tested on: tumor neovascularization; assay: Tumor neovascularization in tumor-bearing mice; details: mouse, in vivo
Description: These hitherto unknown attributes were detected while studying the effects of hypericin and of helianthrone derivatives on breast adenocarcinoma tumors induced in mice with the DA-3^HI cell line and on murine anaplastic squamous carcinoma tumors induced with the SQ-2 cell line. Both are highly metastatic tumors and if surgically resected after having reached a diameter larger than 5 mm, the mice will go on to develop metastases in the lungs and liver. The metastases cause death of the animals within approximately two months following surgery.
By preventing development of new blood vessels to supply a growing metastasis, the rapidly growing metastatic focus is deprived of nutrients and oxygen for its rapidly multiplying cells and the lesion degenerates.

[2] = tested on: rat aorta rings, endothelial cell microvessels; assay: Rat aorta ring microvessel formation in fibrin gel; format: cell-based; details: 0.1-10 μg/ml (0.2-20 μM)
Description: Rat aorta is carved into rings which are embedded in fibrin gels and cultured in MCDB 131 medium. Endothelial cells that detach from the aorta rings generate branching microvessels according to a method previously described (Nicosia R. F. and Ottinetti A. Growth of microvessels in serum-free matrix culture of rat aorta. Laboratory Investigation 63: 115, 1990).

[3] = tested on: heparanase-induced angiogenesis; assay: Heparanase-induced angiogenesis in the anterior chamber of the rat eye; format: in vivo, rats; details: four i.p. injections of 750 μg, 5 days after heparanase
Method: Four rats (250 g each) were given three intraperitoneal injections of hypericin (750 μg per dose in 5 ml water containing 3.5% ethanol) at four day intervals. The following day the animals were anesthetized with xylazine-ketamine and angiogenesis (formation of new blood vessels) was induced by inoculating 2 μl heparanase (30 μg/ml) into the frontal compartment of the eye in the cornea of one of the two eyes in each rat. A fourth intraperitoneal injections of 750 μg hypericin was applied the next day. Two positive control animals received only 2 μl heparanase (30 μg/ml) into the frontal compartment of the eye. Angiogenesis was then allowed to develop for 5 days at which time animals were anesthetized with xylazine-ketamine and examined and photographed under a binocular microscope for development of blood vessels in the anterior chamber of the eye.

[4] = tested on: DA-3HI metastatic lesions; assay: Morphology of metastatic lesions after resection of DA-3HI tumors; format: in vivo, BALB/c mice; details: 5 doses of 200 μg/mouse at 5 day intervals, two months after surgery
Method: In an effort to understand how hypericin prevents the growth of metastases the experiment was repeated and the morphology of the metastatic lesions then followed. Primary DA-3^HI tumors were induced in BALB/c mice. Surgery was conducted on the tumors when diameters reached 8-10 mm. These mice (17 animals) were divided into two groups, one treated with 5 doses of hypericin 200 μg/mouse at 5 day intervals as previously described (9 animals) and another group served as untreated control (8 mice). The animals were grown for two more months. The mice were then sacrificed and the internal organs examined for metastatic lesions. […] This was evident only when hypericin injections were initiated very early prior to the resection of the primary tumor. These observations indicate that hypericin inhibits angiogenesis (growth of new vasculature). […] Since angiogenesis is primarily mediated by vascular endothelium growth factor (VEGF), hypericin may interfere with either the formation or secretion of VEGF from tumor cells or with its targeting of growth inducing receptors on vascular endothelial cells. […] Interference with the signal transduction pathway that culminates in the production of VEGF might be the mechanism for hypericin or helianthrone derivative-mediated inhibition of the VEGF effect that results in inhibition of metastatic lesion growth.

[5] = tested on: U251 human glioblastoma cells; format: cell-based; details: glioblastoma cells in culture, complete darkness
Method: Human HL-60 leukemic cells were grown in RPMI-1640 supplemented with 15% fetal calf serum, […] and 100 units/ml penicillin-streptomycin. Human erythroleukemia K-562 cells (derived from a chronic myeloid leukemia pateient) were grown in the same medium supplemented with 10% fetal calf serum. These cells and the human U251 glioblastoma, U87MG glioblastoma and LAN5 neuroblastoma cells used in the experiments are available from the ATCC. All cell lines were cultured in a humidified 5% CO2/95% air atmosphere at 37° C.
Cell viability was monitored by the MTT assay which measures reduction of 3-(4,5-dimethylthiazol-2-yl)-2,5-diphenyl tetrazolium bromide to formasan by mitochondria of viable cells as described in Mossman, T., J. Immunogen., 21, 235-248 (1983). The cells are incubated with MTT for four hours at 37° C. and analyzed in an ELISA reader at 560 nm. The optical density of formasan generated by untreated cell cultures (O.D. control) is defined as one MTT unit. The number of MTT units in culture samples undergoing treatments is calculated as the ratio (O.D.sample−O.D.blank)/O.D.control).
Three human malignant cell lines were evaluated to sensitivity to dimethyl TMH in vitro. […] The medium was aspirated, the adherent monolayer was washed with phosphate-buffered saline, and cell viability was monitored by the MTI assay. […]

[6] = tested on: SQ2 squamous cell carcinoma tumors; assay: Survival after resection of SQ2 squamous cell carcinoma tumors with hypericin; format: in vivo, BALB/c mice; details: for mice alive beyond 240 days following tumor cell inoculation: resection
Method: In another set of experiments squamous cell carcinoma tumors were generated in BALB/c mice by inoculating 5×10^5 SQ2 cells per mouse. When the tumors reached a diameter of 1.0-1.2 cm in diameter they were removed by surgery (resected). One group of 5 mice also received three i.p injections of hypericin of 100 μg/mouse prior to surgery and two regimens of 50 μg/mouse post surgery at intervals of 5 days between each dosing. Another group of 8 mice received six hypericin i.p. injections of 100 μg/mouse prior to surgery and five regimens of 50 μg/mouse post surgery at intervals 5 days apart. One control group of 17 mice underwent surgery only without treatments with hypericin and another control group remained untreated (22 mice). Animal survival was then followed.

[7] = tested on: DA-3HI induced breast adenocarcinoma tumors; assay: Survival after resection of DA-3HI breast adenocarcinoma tumors with hypericin; format: in vivo, BALB/c mice; details: for survival rate: 5 days apart
Method: The primary tumor size at which metastases occur in DA-3^HI-derived breast adenocarcinoma tumors was initially calibrated in BALB/c mice inoculated with 5×10^5 DA-3^HI tumor cells intradermally. […] If the resection was performed on tumors with larger diameters, the mice died of metastases. A diameter of approximately 5 mm appears to be the cutoff at which metastases begin to spread.
DA-3^HI tumors were induced in 12-week old female BALB/c mice as described above. When the tumors reached diameters of 8-10 mm the mice were divided into four groups. One group of 19 mice was left untreated and in the three other groups the tumors were surgically removed. One of the resected groups received two intraperitoneal (i.p.) injections with 200 μg hypericin (HY) each 5 days apart beginning two days prior to surgery (16 mice). Another resected group received five i.p. injections with 200 μg hypericin each, 5 days apart beginning two days prior to surgery (17 mice). One resected group was not treated with hypericin (16 mice). The mice were then followed for survival. […] However, administration of 2 i.p. injections of hypericin increased the survival rate to 35% and administration of 5 hypericin doses increased the survival rate to 60%.

| SMILES | neovascularization of tumors [1] | formation of organized microvessels [2] | blood vessels in the anterior chamber of the eye [3] | appearance of metastatic lesions in internal organs [4] | effect on the cultures at doses at which dimethyl-TMH kills cells [5] | inhibition of the primary tumor ([6]; SQ-2 anaplastic squamous carcinoma tumors) | mice alive beyond 240 days following tumor cell inoculation ([6]; six i.p. injections 100 μg/mouse prior to surgery, five of 50 μg/mouse post surgery) | mice alive beyond 240 days following tumor cell inoculation ([6]; three i.p. injections 100 μg/mouse prior to surgery, two of 50 μg/mouse post surgery) | protection rates due to hypericin administration ([6]; versus surgery only) | inhibition of the primary tumor ([7]; DA-3HI breast adenocarcinoma tumors) | survival rate ([7]; day 89, resection plus 2 i.p. injections of 200 μg) | survival rate ([7]; day 89, resection plus 5 i.p. injections of 200 μg) |
| --- | --- | --- | --- | --- | --- | --- | --- | --- | --- | --- | --- | --- |
| Cc1ccc2c(=O)c3c(O)cc(O)c4c5c(O)cc(O)c6c(=O)c7ccc(C)cc7c(c65)c(c2c1)c34 [dimethyl tetrahydroxyhelianthrone, 10,13-dimethyl-1,3,4,6-tetrahydroxyhelianthrone] | prevented neovascularization | inhibition of formation of the organized microvessels | – | – | – | – | – | – | – | – | – | – |
| Cc1cc(O)c2c(=O)c3c(O)cc(O)c4c5c(O)cc(O)c6c(=O)c7c(O)cc(C)c8c1c2c(c34)c(c78)c65 [hypericin] | prevented neovascularization | inhibition of formation of the organized microvessels | absence of blood vessels | much smaller, somewhat more necrotic and devoid of such vasculature | no effect | not inhibited | 40% | 60% | 20-40% | not inhibited | 35% | 60% |
